According to ChEMBL document CHEMBL5029152, “Discovery of Highly Potent and Selective IRAK1 Degraders to Probe Scaffolding Functions of IRAK1 in ABC DLBCL” (J Med Chem, 2021):
The source made the active and inactive calls. The calls are words filed in the database; no cut-off is given here.

Tests used:
[1] = target: T1, von Hippel-Lindau disease tumor suppressor/Interleukin-1 receptor-associated kinase 1 (Homo sapiens, UniProt P51617+P40337); test: Protac activity at IRAK1/VHL E3 ligase in HEK293T cells assessed as induction of IRAK1 degradation at 10 uM measured after 24 hrs by Western blot analysis relative to control; assay type: cell-based
T1 sequence (P40337 whole entry, looked up): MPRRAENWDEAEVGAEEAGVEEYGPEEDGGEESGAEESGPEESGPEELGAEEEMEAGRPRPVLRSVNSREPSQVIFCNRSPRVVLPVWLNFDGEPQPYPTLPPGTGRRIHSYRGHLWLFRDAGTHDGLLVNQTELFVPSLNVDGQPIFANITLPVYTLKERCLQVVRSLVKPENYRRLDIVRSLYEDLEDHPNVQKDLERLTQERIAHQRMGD
T1 sequence (P51617 whole entry, looked up): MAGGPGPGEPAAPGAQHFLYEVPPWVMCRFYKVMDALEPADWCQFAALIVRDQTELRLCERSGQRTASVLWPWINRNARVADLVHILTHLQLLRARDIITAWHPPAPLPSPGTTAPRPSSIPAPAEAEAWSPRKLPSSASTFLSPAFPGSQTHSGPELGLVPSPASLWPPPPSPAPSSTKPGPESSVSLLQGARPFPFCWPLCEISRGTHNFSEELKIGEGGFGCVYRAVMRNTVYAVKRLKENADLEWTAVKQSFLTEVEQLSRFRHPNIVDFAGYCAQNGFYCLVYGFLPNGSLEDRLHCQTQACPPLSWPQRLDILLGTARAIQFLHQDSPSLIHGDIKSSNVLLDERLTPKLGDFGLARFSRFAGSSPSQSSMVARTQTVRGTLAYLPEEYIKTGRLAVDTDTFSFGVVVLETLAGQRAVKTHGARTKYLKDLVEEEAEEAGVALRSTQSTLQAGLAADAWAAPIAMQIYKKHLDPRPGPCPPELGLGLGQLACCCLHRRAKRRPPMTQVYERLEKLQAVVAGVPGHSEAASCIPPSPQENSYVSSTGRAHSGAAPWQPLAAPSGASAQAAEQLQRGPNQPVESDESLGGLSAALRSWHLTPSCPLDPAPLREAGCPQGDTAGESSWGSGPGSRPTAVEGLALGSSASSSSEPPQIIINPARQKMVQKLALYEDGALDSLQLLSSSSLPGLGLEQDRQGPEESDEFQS

[2] = target: T1, von Hippel-Lindau disease tumor suppressor/Interleukin-1 receptor-associated kinase 1; test: Protac activity at IRAK1/VHL E3 ligase in HEK293T cells assessed as induction of IRAK1 degradation at 1 uM measured after 24 hrsin presence of VH298 by Western blot analysis; assay type: cell-based; conditions: time 24.0 hrs
[3] = target: T2, Serine/threonine-protein kinase 17B (Homo sapiens) (UniProt O94768); test: Inhibition of wild-type human full length DRAK2 (M1 to C372 residues) expressed in bacterial expression system at 1 uM by Kinomescan method
T2 sequence (whole entry): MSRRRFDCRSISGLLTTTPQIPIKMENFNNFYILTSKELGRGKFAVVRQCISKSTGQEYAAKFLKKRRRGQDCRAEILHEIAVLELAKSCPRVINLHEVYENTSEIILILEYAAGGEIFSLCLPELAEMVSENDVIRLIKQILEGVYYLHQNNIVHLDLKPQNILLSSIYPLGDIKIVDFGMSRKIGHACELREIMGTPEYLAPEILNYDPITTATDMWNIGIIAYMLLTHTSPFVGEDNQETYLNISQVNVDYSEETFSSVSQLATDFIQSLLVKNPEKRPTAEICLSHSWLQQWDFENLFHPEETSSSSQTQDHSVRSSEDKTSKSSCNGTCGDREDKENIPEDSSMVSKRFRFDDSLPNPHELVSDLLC

[4] = target: Interleukin-1 receptor-associated kinase 1 (Homo sapiens, UniProt P51617); test: Induction of IRAK1 degradation in human Toledo cells assessed as decrease in protein abundance at 1 uM measured after 6 hrs by quantitative mass spectrometry; assay type: cell-based
Chain of Interleukin-1 receptor-associated kinase 1 (P51617 whole entry, looked up): as the sequence (P51617 whole entry, looked up) above

[5] = target: T3, Cyclin-G-associated kinase (Homo sapiens) (UniProt O14976); test: Induction of GAK degradation in human Toledo cells assessed as decrease in protein abundance at 1 uM measured after 6 hrs by quantitative mass spectrometry; assay type: cell-based
T3 sequence (whole entry): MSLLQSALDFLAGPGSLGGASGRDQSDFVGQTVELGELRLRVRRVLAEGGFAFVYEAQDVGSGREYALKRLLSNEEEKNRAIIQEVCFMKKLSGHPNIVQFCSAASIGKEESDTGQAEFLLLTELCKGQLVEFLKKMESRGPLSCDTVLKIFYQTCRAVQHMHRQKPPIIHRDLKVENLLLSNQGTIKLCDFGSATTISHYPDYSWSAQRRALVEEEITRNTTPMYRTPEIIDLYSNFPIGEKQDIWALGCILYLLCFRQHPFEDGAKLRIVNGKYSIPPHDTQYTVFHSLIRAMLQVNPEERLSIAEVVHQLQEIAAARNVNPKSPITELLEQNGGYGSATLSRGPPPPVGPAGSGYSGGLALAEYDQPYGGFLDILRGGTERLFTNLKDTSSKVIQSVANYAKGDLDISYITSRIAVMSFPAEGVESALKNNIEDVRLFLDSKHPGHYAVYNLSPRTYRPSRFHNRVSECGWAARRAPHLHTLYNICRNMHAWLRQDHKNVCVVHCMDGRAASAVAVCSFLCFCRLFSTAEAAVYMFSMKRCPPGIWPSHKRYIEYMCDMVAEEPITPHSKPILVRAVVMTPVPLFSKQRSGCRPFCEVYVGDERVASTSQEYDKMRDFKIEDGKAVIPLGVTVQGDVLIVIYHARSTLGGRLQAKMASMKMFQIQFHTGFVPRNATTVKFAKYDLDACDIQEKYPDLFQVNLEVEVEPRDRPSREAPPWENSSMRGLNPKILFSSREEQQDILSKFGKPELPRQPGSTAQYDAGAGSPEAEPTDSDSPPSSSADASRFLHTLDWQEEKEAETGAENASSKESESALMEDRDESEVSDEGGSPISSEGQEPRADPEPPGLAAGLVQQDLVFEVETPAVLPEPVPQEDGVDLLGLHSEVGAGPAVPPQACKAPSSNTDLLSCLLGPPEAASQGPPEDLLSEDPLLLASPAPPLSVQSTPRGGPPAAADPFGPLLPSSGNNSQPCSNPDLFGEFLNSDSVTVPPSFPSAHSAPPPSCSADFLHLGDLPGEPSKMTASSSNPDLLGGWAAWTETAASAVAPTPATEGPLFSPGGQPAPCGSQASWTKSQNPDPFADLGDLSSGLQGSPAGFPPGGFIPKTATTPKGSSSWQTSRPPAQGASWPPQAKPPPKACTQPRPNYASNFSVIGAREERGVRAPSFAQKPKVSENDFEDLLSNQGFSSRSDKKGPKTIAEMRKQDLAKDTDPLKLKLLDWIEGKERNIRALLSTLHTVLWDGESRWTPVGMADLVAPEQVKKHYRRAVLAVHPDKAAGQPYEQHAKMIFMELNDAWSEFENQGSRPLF

[6] = target: NmrA-like family domain-containing protein 1 (Homo sapiens) (UniProt Q9HBL8); test: Induction of NMRAL1 degradation in human Toledo cells assessed as decrease in protein abundance at 1 uM measured after 6 hrs by quantitative mass spectrometry; assay type: cell-based
Chain of NmrA-like family domain-containing protein 1 (Homo sapiens) (Q9HBL8 whole entry, the tested form may be a part): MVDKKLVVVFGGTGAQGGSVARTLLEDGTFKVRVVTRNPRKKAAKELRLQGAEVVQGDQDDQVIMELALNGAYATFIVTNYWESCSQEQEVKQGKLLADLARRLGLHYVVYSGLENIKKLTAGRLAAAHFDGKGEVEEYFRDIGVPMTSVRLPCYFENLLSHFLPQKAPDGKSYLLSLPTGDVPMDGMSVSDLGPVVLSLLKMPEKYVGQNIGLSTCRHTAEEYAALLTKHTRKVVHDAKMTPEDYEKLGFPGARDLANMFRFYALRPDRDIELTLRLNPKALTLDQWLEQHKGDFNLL

[7] = target: T3, Cyclin-G-associated kinase (Homo sapiens); test: Inhibition of wild-type human partial length GAK (G13 to Y338 residues) expressed in bacterial expression system at 1 uM by Kinomescan method relative to control
[8] = target: T3, Cyclin-G-associated kinase (Homo sapiens); test: Induction of GAK degradation in human Toledo cells at 1 uM measured after 6 hrs by quantitative mass spectrometry relative to control; assay type: cell-based
[9] = tested on: HBL1; test: Induction of apoptosis in human HBL1 cells assessed as increase in PARP cleavage at up to 1 uM measured after 24 hrs by Western blot analysis; assay type: functional, cell-based; conditions: dose microM <=1, time 24.0 hrs
[10] = Cytotoxicity against human HBL1 cells assessed as reduction in cell viability measured after 12 days by CellTiter-Glo assay; assay type: functional; conditions: time 12 day

%max [1]: 96%
Activity [2]: inactive
inhibition [3]: Active
Activity [4]: Active
Activity [5]: Active
Activity [6]: Active
inhibition [7]: 63%
Activity [8]: 50%
Structure (SMILES): COc1cc(N2CCC(OCC(=O)N[C@H](C(=O)N3C[C@H](O)C[C@H]3C(=O)N[C@@H](C)c3ccc(-c4scnc4C)cc3)C(C)(C)C)CC2)ccc1NC(=O)c1cccc(-c2ccn[nH]2)n1
Activity [9]: Active
Activity [10]: 60 nM
